pIC50: −log10 of the molar value. Structures can show the parent of a compound that is named as a salt.
Target: T1, epithelial sodium channel (ENaC) (Homo sapiens, UniProt P37088+P51168+P51170)
T1 construct: host or cells: primary human bronchial epithelial cells (HBECs), differentiated at air-liquid interface
T1 sequence (P37088 1-669): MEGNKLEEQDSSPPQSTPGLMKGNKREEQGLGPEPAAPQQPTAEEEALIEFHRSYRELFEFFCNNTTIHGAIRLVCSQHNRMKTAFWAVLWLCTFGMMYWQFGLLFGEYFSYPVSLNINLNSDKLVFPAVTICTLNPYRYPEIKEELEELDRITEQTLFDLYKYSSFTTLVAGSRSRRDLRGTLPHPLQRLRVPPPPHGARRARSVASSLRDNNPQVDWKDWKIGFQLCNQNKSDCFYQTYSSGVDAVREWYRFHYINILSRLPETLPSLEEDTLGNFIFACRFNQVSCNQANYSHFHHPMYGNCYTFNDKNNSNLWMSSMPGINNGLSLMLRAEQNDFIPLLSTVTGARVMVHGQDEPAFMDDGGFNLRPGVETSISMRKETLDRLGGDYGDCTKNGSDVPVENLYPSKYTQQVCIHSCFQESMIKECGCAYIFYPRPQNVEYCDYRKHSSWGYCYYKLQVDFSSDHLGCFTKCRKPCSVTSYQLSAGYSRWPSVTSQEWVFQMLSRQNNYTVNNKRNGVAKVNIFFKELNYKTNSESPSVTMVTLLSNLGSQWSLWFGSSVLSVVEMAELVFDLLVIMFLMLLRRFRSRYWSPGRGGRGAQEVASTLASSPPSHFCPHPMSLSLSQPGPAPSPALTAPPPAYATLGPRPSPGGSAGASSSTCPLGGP
T1 sequence (P51168 1-640): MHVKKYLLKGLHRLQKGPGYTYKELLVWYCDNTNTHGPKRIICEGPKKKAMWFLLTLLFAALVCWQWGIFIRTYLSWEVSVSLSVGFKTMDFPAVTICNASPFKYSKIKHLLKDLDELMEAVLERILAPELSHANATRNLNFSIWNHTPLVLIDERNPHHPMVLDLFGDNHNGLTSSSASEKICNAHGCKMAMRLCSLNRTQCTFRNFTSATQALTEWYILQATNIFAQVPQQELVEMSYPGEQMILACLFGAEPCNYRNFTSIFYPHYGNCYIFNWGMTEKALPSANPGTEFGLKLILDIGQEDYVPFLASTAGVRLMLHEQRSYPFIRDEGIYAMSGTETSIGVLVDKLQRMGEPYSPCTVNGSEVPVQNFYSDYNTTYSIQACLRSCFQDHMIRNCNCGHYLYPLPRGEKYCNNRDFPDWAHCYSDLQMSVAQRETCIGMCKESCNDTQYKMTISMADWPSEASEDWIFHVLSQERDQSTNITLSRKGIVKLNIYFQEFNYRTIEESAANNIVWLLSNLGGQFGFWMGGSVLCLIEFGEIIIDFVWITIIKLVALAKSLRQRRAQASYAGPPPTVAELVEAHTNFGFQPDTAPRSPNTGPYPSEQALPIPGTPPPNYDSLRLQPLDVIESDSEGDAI
T1 sequence (P51170 1-649): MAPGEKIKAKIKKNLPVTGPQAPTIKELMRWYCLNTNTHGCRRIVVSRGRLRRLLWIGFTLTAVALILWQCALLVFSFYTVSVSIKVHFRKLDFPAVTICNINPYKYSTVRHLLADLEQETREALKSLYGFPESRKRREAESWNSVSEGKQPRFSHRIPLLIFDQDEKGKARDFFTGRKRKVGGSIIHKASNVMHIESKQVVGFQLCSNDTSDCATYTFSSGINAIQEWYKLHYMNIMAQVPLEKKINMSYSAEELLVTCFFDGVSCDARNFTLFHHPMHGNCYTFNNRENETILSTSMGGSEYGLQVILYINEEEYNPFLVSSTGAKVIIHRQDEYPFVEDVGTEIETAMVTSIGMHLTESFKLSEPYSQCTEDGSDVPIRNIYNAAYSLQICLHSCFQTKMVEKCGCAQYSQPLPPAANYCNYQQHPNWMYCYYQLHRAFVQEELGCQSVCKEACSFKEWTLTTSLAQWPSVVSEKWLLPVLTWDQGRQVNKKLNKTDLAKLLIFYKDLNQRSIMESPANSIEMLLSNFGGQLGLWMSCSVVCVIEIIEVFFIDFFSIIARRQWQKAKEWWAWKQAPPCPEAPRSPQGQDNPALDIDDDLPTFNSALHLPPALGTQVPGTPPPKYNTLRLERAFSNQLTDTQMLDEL
Assay: Short circuit current (ISC) measurements in Human Bronchial Epithelial cells
Format: cell-based
Details: HBECs at air-liquid interface, Ussing chamber, apical addition; read-out: IC50 (inhibition of the amiloride-sensitive ISC)
Description: Human Bronchial Epithelial cells (HBECs) (Cambrex) were cultured under air-liquid interface conditions to provide a well differentiated mucociliary phenotype.
HBECs were cultured using a modification of the method described by Gray and colleagues
(Gray et al., 1996). Cells were seeded in plastic T-162 flasks and were grown in bronchial epithelial cell growth medium (BEGM; Cambrex) supplemented with bovine pituitary extract (52 μg/mL), hydrocortisone (0.5 μg/mL), human recombinant epidermal growth factor ([…]), epinephrine (0.5 μg/mL), transferrin (10 μg/mL), insulin (5 μg/mL), retinoic acid (0.1 μg/mL), triiodothyronine ([…]), gentamycin (50 μg/mL) and amphotericin B (50 μg/mL). Medium was changed every 48 hours until cells were 90% confluent. Cells were then passaged and seeded (8.25×10^5 cells/insert) on polycarbonate Snapwell inserts (Costar) in differentiation media containing 50% DMEM in BEGM with the same supplements as above but without triiodothyronine and a final retinoic acid concentration of 50 nM (all-trans retinoic acid). Cells were maintained submerged for the first 7 days in culture, after which time they were exposed to an apical air interface for the remainder of the culture period. At this time, media was changed to DMEM:F12 media containing 2% v/v Ultroser G for the remainder of culture. Amphotericin B was removed from all media 3 feeds prior to use in the Ussing Chambers. Cells were used between days 7 and 21 after establishment of the apical-air interface. At all stages of culture, cells were maintained at 37° C. in 5% CO2 in an air incubator.
Snapwell inserts were mounted in Vertical Diffusion Chambers (Costar) and were bathed with continuously gassed Ringer solution (5% CO2 in O2; pH 7.4) maintained at 37° C. containing (in mM): 120 NaCl, 25 NaHCO3, 3.3 KH2PO4, 0.8 K2HPO4, 1.2 CaCl2, 1.2 MgCl2, and 10 glucose. The solution osmolarity was between 280 and 300 mOsmol/kg H2O for all physiological salt solutions used. Cells were voltage clamped to 0 mV (model EVC4000; WPI). RT was measured by applying a 1- or 2-mV pulse at 30-s intervals and calculating RT by Ohm's law. Data were recorded using a PowerLab workstation (ADInstruments).
Test compounds were prepared as a 10 mM stock solution in DMSO (95%). Serial 3-fold dilutions were freshly prepared in an appropriate vehicle (distilled H2O or Ringers solution). […] At the completion of the concentration-response experiment, amiloride (10 μM) was added into the apical chamber to enable the total amiloride-sensitive current to be measured. […]
Results are expressed as the mean % inhibition of the amiloride-sensitive ISC. […] Cell inserts were typically run in duplicate and the IC50 calculated on the mean % inhibition data.

Row | SMILES | pIC50
1 | N=C(NCCCCNC(=O)Cc1ccccc1)NC(=O)c1nc(Cl)c(N)nc1N [Example 25] | 7.74
2 | N=C(NCCCCCCNS(=O)(=O)c1cccc2ccccc12)NC(=O)c1nc(Cl)c(N)nc1N [Example 3] | 7.78
3 | N=C(NCCCC(=O)N(Cc1ccccc1)[C@H]1CC2CC[C@H](C1)N2Cc1ccccc1)NC(=O)c1nc(Cl)c(N)nc1N [Example 12] | 7.18
4 | COC(=O)[C@H](CCCCNC(=N)NC(=O)c1nc(Cl)c(N)nc1N)NS(=O)(=O)c1ccc(C)cc1 [Example 17, (S)-6-[N′-(3,5-Diamino-6-chloro-pyrazine-2-carbonyl)-guanidino]-2-(toluene-4 sulfonylamino)-hexanoic acid methyl ester trifluoroacetate] | 7.48
